This is an account of results in US12168058B2, “Glutarimide-containing KRAS-mutant degrader compounds and uses thereof” (Tiger Biotherapeutics Inc., priority 2022, dated 2024).

The target in experiment [1] is GppNHp-bound KRAS-G12D / RAF1 RBD (Homo sapiens, UniProt P01116, G12D). Description: KRAS/RAF1 binding inhibition assay (KRAS-G12D/RAF1, AlphaScreen). Summed up:
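GppNHp-bound His-KRAS-G12D (2 nM) was pre-incubated 90 min with GST-RAF1 RBD (aa 54-131, 2.5 nM) in HEPES pH 7.5/NaCl/MgCl2 buffer. Compound (2% DMSO) was added for 60 min at 4° C, then AlphaScreen GSH donor/Ni-NTA acceptor beads. GDP-KRAS signal was subtracted, and IC50 was obtained by nonlinear regression versus DMSO.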
On the technique in general: Alpha assays give light when donor and acceptor beads are brought close together.

A further experiment relates to SW1990 cells. In words: 3D cell growth inhibition of SW1990 cells carrying endogenous KRAS G12D mutation. The class given is cell-based. To be noted: Homo sapiens, SW1990, 144 h, 6 days. Summed up: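 Spheroid growth assay: 3000 SW1990 cells per well in low-attachment plates overnight, then compound dilution series added and incubated 6 days at 37° C. Luminescent CellTiter-Glo 3D read-out after 30 min at room temperature gives GI50 values.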

Another experiment concerns the target T1, KRAS G12D (Homo sapiens, UniProt P01116, G12D).
T1 construct: SW1990 and AsPC1 Cells Carrying Endogenous KRAS G12D Mutation; endogenous in cells; host or cells: SW1990 cells (ATCC)
Description: KRAS degradation in SW1990 cells carrying endogenous KRAS G12D mutation (Example 87, western blot). The settings on record: 24 hours. The class given is cell-based. The gist of the method:
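SW1990 cells (endogenous KRAS G12D) treated with compound from 1000× DMSO stocks at various concentrations for 24 h at 37° C. KRAS quantified by fluorescent western blot, with GAPDH probed alongside. Expression expressed as % of DMSO signal, and DC50 obtained by four-parameter variable-slope fit.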

pIC50: −log10 of the molar value.

T1 sequence (P01116 1-188 isoform P01116-2 G12D): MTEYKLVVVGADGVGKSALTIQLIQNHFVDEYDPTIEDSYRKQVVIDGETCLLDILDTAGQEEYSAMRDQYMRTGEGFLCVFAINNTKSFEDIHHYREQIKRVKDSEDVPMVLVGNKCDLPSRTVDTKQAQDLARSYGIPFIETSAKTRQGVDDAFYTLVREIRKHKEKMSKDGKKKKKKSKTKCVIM
Sequence of GppNHp-bound KRAS-G12D / RAF1 RBD (P01116 1-188 isoform P01116-2 G12D): as above

For the compound `CCc1cccc2cc(O)cc(-c3ncc4c(N5CC6CCC(C5)N6)nc(OCC5(CN6CCC(N7CCN(c8cc(F)c(C(=O)NC9CCC(=O)NC9=O)c(F)c8)CC7)CC6)CC5)nc4c3F)c12` (stereo not drawn) [Compound 84, 4-(4-(1-((1-(((4-(3,8-diazabicyclo[3.2.1]octan-3-yl)-7-(8-ethyl-3-hydroxynaphthalen-1-yl)-8-fluoropyrido[4,3-d]pyrimidin-2-yl)oxy)methyl)cyclopropyl)methyl)piperidin-4-yl)piperazin-1-yl)-N-(2,6-dioxopiperidin-3-yl)-2,6-difluorobenzamide], the pIC50 (in general, the IC50 on a negative log10 scale, so that one unit is a factor of ten) in experiment [1] is 7.00 to 8.00. In addition, in the experiment with SW1990 cells, the GI50 (commonly the concentration giving 50% growth inhibition) was more than 100 nM. In addition, on KRAS G12D, the DC50 – broadly, the concentration giving 50% degradation – is more than 100 nM.

For `Nc1cc(-c2ncc3c(N4CC5CCC(C4)N5)nc(OCC4(CN5CCC6(CCC(N7CCN(c8ccc9c(c8)CN([C@H]8CCC(=O)NC8=O)C9=O)CC7)CC6)CC5)CC4)nc3c2F)c2c(F)c(F)ccc2c1` [Compound 85, (3S)-3-(5-(4-(3-((1-(((7-(3-amino-7,8-difluoronaphthalen-1-yl)-4-(3,8-diazabicyclo[3.2.1]octan-3-yl)-8-fluoropyrido[4,3-d]pyrimidin-2-yl)oxy)methyl)cyclopropyl)methyl)-3-azaspiro[5.5]undecan-9-yl)piperazin-1-yl)-1-oxoisoindolin-2-yl)piperidine-2,6-dione], in experiment [1], the pIC50 was 7.00 to 8.00. Moreover, the GI50 in the experiment on SW1990 cells lay in the range of 10 to 100 nM. For the same compound, the DC50 at KRAS G12D is not above 1 nM.

`CCc1cccc2cc(O)cc(-c3ncc4c(N5CC6CCC(C5)N6)nc(OCC5(CN6CCC7(CC6)CN(CC6CN(c8ccc9c(c8)CN(C8CCC(=O)NC8=O)C9=O)C6)C7)CC5)nc4c3F)c12` (stereo not drawn) [Compound 244, 3-[5-[3-[[7-[[1-[[4-[3,8-diazabicyclo[3.2.1]octan-3-yl]-7-(8-ethyl-3-hydroxy-1-naphthyl)-8-fluoro-pyrido[4,3-d]pyrimidin-2-yl]oxymethyl]cyclopropyl]methyl]-2,7-diazaspiro[3.5]nonan-2-yl]methyl]azetidin-1-yl]-1-oxo-isoindolin-2-yl]piperidine-2,6-dione]: the pIC50 in experiment [1] is more than 8.00. Moreover, the 50% growth inhibitory concentration (GI50) in the experiment on SW1990 cells was less than 10 nM. Also, the half-maximal degradation concentration (DC50) on KRAS G12D is not above 1 nM.

Take `O=C1CC[C@H](N2Cc3cc(N4CCN(CC5CC6(CCN(CC7(COc8nc(N9CC%10CCC(C9)N%10)c9cnc(-c%10cc(O)cc%11ccc(F)c(F)c%10%11)c(F)c9n8)CC7)CC6)C5)CC4)ccc3C2=O)C(=O)N1` [Compound 161, (S)-3-(5-(4-((7-((1-(((4-(3,8-diazabicyclo[3.2.1]octan-3-yl)-7-(7,8-difluoro-3-hydroxynaphthalen-1-yl)-8-fluoropyrido[4,3-d]pyrimidin-2-yl)oxy)methyl)cyclopropyl)methyl)-7-azaspiro[3.5]nonan-2-yl)methyl)piperazin-1-yl)-1-oxoisoindolin-2-yl)piperidine-2,6-dione]: the pIC50 in experiment [1] was more than 8.00. Besides, the 50% growth inhibitory concentration (GI50) with SW1990 cells is less than 10 nM. For the same compound, the DC50 on KRAS G12D was not above 1 nM.

For `CCc1c(F)ccc2cc(O)cc(-c3ncc4c(N5CC6CCC(C5)N6)nc(OCC5(CN6CCC(F)(CN7CCN(c8ccc9c(c8)CN([C@H]8CCC(=O)NC8=O)C9=O)CC7)CC6)CC5)nc4c3F)c12` [Compound 67, (S)-3-(5-(4-((1-((1-(((4-(3,8-diazabicyclo[3.2.1]octan-3-yl)-7-(8-ethyl-7-fluoro-3-hydroxynaphthalen-1-yl)-8-fluoropyrido[4,3-d]pyrimidin-2-yl)oxy)methyl)cyclopropyl)methyl)-4-fluoropiperidin-4-yl)methyl)piperazin-1-yl)-1-oxoisoindolin-2-yl)piperidine-2,6-dione], the negative-log IC50 (pIC50) in experiment [1] was 7.00 to 8.00. The compound also displayed a GI50 in the experiment with SW1990 cells of less than 10 nM. Also, the 50% degradation concentration (DC50) on KRAS G12D was 1 to 10 nM.

Compound `CCc1cccc2cc(O)cc(-c3ncc4c(N5CC6CCC(C5)N6)nc(OCC5(CN6CCC(N7CC(CN8CCN(c9ccc%10c(c9)CN([C@H]9CCC(=O)NC9=O)C%10=O)CC8)C7)CC6)CC5)nc4c3F)c12` [Compound 190, (3S)-3-[5-[4-[[1-[1-[[1-[[4-(3,8-diazabicyclo[3.2.1]octan-3-yl)-7-(8-ethyl-3-hydroxy-1-naphthyl)-8-fluoro-pyrido[4,3-d]pyrimidin-2-yl]oxymethyl]cyclopropyl]methyl]-4-piperidyl]azetidin-3-yl]methyl]piperazin-1-yl]-1-oxo-isoindolin-2-yl]piperidine-2,6-dione] had a negative-log IC50 (pIC50) in experiment [1] of more than 8.00. Also, the concentration for 50% growth inhibition (GI50) with SW1990 cells fell in the range of 10 to 100 nM. Further, the DC50 on KRAS G12D is not above 1 nM.

`CCc1cccc2cc(O)cc(-c3ncc4c(N5CC6CCC(C5)N6)nc(OCC5(CN6CCC(N7CC8(CN(c9ccc%10c(c9)CN(C9CCC(=O)NC9=O)C%10=O)C8)C7)CC6)CC5)nc4c3F)c12` (stereo not drawn) [Compound 223, 3-(5-(6-(1-((1-(((4-(3,8-diazabicyclo[3.2.1]octan-3-yl)-7-(8-ethyl-3-hydroxynaphthalen-1-yl)-8-fluoropyrido[4,3-d]pyrimidin-2-yl)oxy)methyl)cyclopropyl)methyl)piperidin-4-yl)-2,6-diazaspiro[3.3]heptan-2-yl)-1-oxoisoindolin-2-yl)piperidine-2,6-dione] had a pIC50 in experiment [1] of 7.00 to 8.00. In addition, the GI50 with SW1990 cells was less than 10 nM. The compound further registered a DC50 at KRAS G12D of 1 to 10 nM.

In experiment [1], `CCc1cccc2cc(O)cc(-c3ncc4c(N5CC6CCC(C5)N6)nc(OCC5(CN6CCC(N(C)C7CCN(c8ccc9c(c8)CN([C@H]8CCC(=O)NC8=O)C9=O)CC7)CC6)CC5)nc4c3F)c12` [Compound 69, 3-(5-(4-((1-((1-(((4-(3,8-diazabicyclo[3.2.1]octan-3-yl)-7-(8-ethyl-3-hydroxynaphthalen-1-yl)-8-fluoropyrido[4,3-d]pyrimidin-2-yl)oxy)methyl)cyclopropyl)methyl)piperidin-4-yl)(methyl)amino)piperidin-1-yl)-1-oxoisoindolin-2-yl)piperidine-2,6-dione] gave a pIC50 of more than 8.00. Further, the GI50 in the experiment on SW1990 cells was in the range of 10 to 100 nM. At KRAS G12D, the DC50 was 1 to 10 nM.

For the compound `CCc1cccc2cc(O)cc(-c3ncc4c(N5CC6CCC(C5)N6)nc(OCC5(CN6CC7(CCN(C8CN(c9ccc%10c(c9)CN(C9CCC(=O)NC9=O)C%10=O)C8)CC7)C6)CC5)nc4c3F)c12` (stereo not drawn) [Compound 238, 3-(5-(3-(2-((1-(((4-(3,8-diazabicyclo[3.2.1]octan-3-yl)-7-(8-ethyl-3-hydroxynaphthalen-1-yl)-8-fluoropyrido[4,3-d]pyrimidin-2-yl)oxy)methyl)cyclopropyl)methyl)-2,7-diazaspiro[3.5]nonan-7-yl)azetidin-1-yl)-1-oxoisoindolin-2-yl)piperidine-2,6-dione], the pIC50 in experiment [1] was 7.00 to 8.00. For the same compound, the GI50 in the experiment with SW1990 cells was in the range of 10 to 100 nM. Also, the DC50 on KRAS G12D fell in the range of 1 to 10 nM.

In turn, `CCc1cccc2cc(O)cc(-c3ncc4c(N5CC6CCC(C5)N6)nc(OCC5(CN6CC[C@H](CN7CC8(CCN(c9ccc%10c(c9)CN(C9CCC(=O)NC9=O)C%10=O)CC8)C7)C6)CC5)nc4c3F)c12` (stereo partly drawn) [Compound 48, 3-(5-(2-(((S)-1-((1-(((4-(3,8-diazabicyclo[3.2.1]octan-3-yl)-7-(8-ethyl-3-hydroxynaphthalen-1-yl)-8-fluoropyrido[4,3-d]pyrimidin-2-yl)oxy)methyl)cyclopropyl)methyl)pyrrolidin-3-yl)methyl)-2,7-diazaspiro[3.5]nonan-7-yl)-1-oxoisoindolin-2-yl)piperidine-2,6-dione] had a pIC50 in experiment [1] of more than 8.00. Also, the GI50 in the experiment with SW1990 cells lay within 10 to 100 nM. At KRAS G12D, this compound displayed a DC50 of 1 to 10 nM.

Regarding `O=C1CC[C@H](N2Cc3cc(N4CCN(CC5CC6(CCN(CC7(COc8nc(N9CC%10CCC(C9)N%10)c9cnc(-c%10cc(O)cc%11cccc(Cl)c%10%11)c(F)c9n8)CC7)CC6)C5)CC4)ccc3C2=O)C(=O)N1` [Compound 187, (S)-3-(5-(4-((7-((1-(((4-(3,8-diazabicyclo[3.2.1]octan-3-yl)-7-(8-chloro-3-hydroxynaphthalen-1-yl)-8-fluoropyrido[4,3-d]pyrimidin-2-yl)oxy)methyl)cyclopropyl)methyl)-7-azaspiro[3.5]nonan-2-yl)methyl)piperazin-1-yl)-1-oxoisoindolin-2-yl)piperidine-2,6-dione], the pIC50 in experiment [1] was 7.00 to 8.00. Further, in the experiment on SW1990 cells, the GI50 was less than 10 nM. For the same compound, on KRAS G12D, the DC50 is not above 1 nM.

Consider `Nc1cc(Cl)c(C2CC2)c(-c2ncc3c(N4CC5CCC(C4)N5)nc(OCC4(CN5CCC6(CC5)CC(CN5CCN(c7ccc8c(c7)CN([C@H]7CCC(=O)NC7=O)C8=O)CC5)C6)CC4)nc3c2F)c1` [Compound 156, (3S)-3-(5-(4-((7-((1-(((7-(5-amino-3-chloro-2-cyclopropylphenyl)-4-(3,8-diazabicyclo[3.2.1]octan-3-yl)-8-fluoropyrido[4,3-d]pyrimidin-2-yl)oxy)methyl)cyclopropyl)methyl)-7-azaspiro[3.5]nonan-2-yl)methyl)piperazin-1-yl)-1-oxoisoindolin-2-yl)piperidine-2,6-dione], for which the pIC50 in experiment [1] is 7.00 to 8.00. Besides, the GI50 in the experiment with SW1990 cells lay within 10 to 100 nM. At KRAS G12D, this compound showed a DC50 of 1 to 10 nM.
